Consider two molecules from patent publication EP3693740A1, “IMPROVED DITHIOCARMABATE BASED COMPOUNDS, THERAPIES AND DIAGNOSTICS” (Deutsches Krebsforschungszentrum, Stiftung des öffentlichen …, priority 2019, dated 2020).

SMILES strings stand for the structures.

Data set [1] relates to roGFP2-Orp1. Briefly: Oxidation of the genetically encoded H2O2 probe roGFP2-Orp1 (cytoplasmic and mitochondrial). In kind it is cell-based. As to conditions: for reversibility of probe oxidation: concentrations below the EC50 of DKFZ-608.
Data set [2] concerns peroxides (most likely H2O2). Briefly: Peroxide quantification with ROS Glo probe (boronate-caged luciferin precursor). In kind it is cell-based. The text has this:
Gold(I) complexes have been previously reported to induce pro-oxidative effects in tumour cells.

Data set [3] has as its target truncated form of TRXR1, lacking the Sec (TRXR1ΔSec) (Homo sapiens, UniProt Q16881). The text has this:
The present invention will now be further described in the following examples with reference to the accompanying figures and sequences, nevertheless, without being limited thereto. For the purposes of the present invention, all references as cited herein are incorporated by reference in their entireties.

In data set [4] the target is T1, TRXR1 (Homo sapiens, UniProt Q16881). As to conditions: inhibitors pre-incubated with TRXR1 before addition of TRX1. The text has this:
The mode of inhibition was further characterized by investigating the effect of substrate competition.

Data set [5] deals with SCLC cell line H209. Nature of the data set: Induction of apoptotic cell death. In kind it is cell-based. The text has this:
Treatment with DKFZ-608 caused morphological changes of the nucleus reminiscent of apoptosis (Figure 1A). […] The inventors then investigated the possible involvement of apoptotic mechanisms in the SCLC cell line H209. […] It was also investigated whether alternative cell death mechanisms like ferroptosis, necroptosis or entosis contribute to the cytotoxicity of DKFZ-608 on SCLC. Inhibitors of those cell death programs were, however, not able to desensitize SCLC cells.

Data set [6] has as its system SCLC. Briefly: SCLC animal model, residual tumour cells after first line therapy. In kind it is in vivo. The text has this: In context of the herein disclosed invention it was discovered, that thioredoxin reductase 1 (TRXR1), when inhibited competitively, is a promising drug target for SCLC. DKFZ-608, a homoleptic dithiocarbamate gold complex, reversibly binds TRXR1 in competition with the TRXR1 substrate thioredoxin-1 (TRX1). Consequently, cells expressing low levels of TRX1, like SCLC, are hypersensitive to DKFZ-608, while cells, which express higher levels of TRX1, are resistant. DKFZ-608 causes oxidative stress in the cytoplasm, but not in mitochondria, further contributing to its low toxicity profile.

Data set [7] addresses T1, TRXR1.
The target in data set [8] is T1, TRXR1. This is another data set of the same source.
Data set [9] concerns the target T1, TRXR1. The source holds these as a separate data set.

T1 sequence (Q16881 151-649 limits assumed): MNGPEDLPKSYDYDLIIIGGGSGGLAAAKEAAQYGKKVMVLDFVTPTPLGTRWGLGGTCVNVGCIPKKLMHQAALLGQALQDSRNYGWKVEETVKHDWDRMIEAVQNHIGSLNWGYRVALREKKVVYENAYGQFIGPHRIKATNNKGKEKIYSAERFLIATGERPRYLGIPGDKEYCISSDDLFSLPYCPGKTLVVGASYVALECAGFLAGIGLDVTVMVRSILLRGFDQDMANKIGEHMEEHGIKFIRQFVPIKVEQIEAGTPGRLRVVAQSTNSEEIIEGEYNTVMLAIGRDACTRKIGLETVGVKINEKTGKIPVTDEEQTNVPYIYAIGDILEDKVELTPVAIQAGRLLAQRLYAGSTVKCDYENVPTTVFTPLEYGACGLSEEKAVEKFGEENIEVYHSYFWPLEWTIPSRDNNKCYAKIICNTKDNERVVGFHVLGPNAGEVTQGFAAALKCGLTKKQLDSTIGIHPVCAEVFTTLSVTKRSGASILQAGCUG
Sequence of truncated form of TRXR1, lacking the Sec (TRXR1ΔSec) (Q16881 151-647 limits assumed, stated change not applied): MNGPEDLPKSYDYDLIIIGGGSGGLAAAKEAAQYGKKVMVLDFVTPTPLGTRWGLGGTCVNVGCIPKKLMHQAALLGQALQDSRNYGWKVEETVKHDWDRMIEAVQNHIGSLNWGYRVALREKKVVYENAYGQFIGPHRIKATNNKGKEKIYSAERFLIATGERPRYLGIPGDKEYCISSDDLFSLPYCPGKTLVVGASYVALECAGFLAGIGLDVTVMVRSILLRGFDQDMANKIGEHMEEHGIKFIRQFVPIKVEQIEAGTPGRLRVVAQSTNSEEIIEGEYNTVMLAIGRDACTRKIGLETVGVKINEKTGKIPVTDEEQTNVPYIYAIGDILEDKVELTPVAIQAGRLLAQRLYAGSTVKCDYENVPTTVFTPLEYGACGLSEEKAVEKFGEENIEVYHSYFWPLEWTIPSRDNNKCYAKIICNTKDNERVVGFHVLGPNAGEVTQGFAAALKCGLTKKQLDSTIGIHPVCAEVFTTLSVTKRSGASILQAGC

For the molecule `CCN(CC)C1=[S+][Au-][S]C(N(CC)CC)=[S+][Au-][S]1` [DKFZ-608], in data set [1], the “reversibility of probe oxidation” value was “appears to be reversible” and the “oxidation of the mitochondrial roGFP2-Orp1 probe” value was “did not cause oxidation of the mitochondrial probe”. Further, in [2], the increase of peroxides entry is “induced fast and strong increase of peroxides”. The “inhibition of TRXR1ΔSec” value in data set [3] is given as “not inhibited”. Also, the “effect of increasing amounts of TRX1 on enzyme inhibition” value in data set [4] is given as “increasing amounts of TRX1 reduced enzyme inhibition”. For the same molecule, the “cytotoxic effect in presence of pan-Caspase inhibitor” value in data set [5] (H209) is “could be reverted by the pan-Caspase inhibitor z-VAD-FMK”. Further, the “Annexin-V positive cells and late apoptotic cells” value in [5] (data not shown) was “increases the amount of Annexin-V positive cells and late apoptotic cells”. Also, the tumour recurrence result in data set [6] is reported as “completely prevents tumour recurrence”. In data set [7], the “enzymatic activity after dilution of a sample containing TRXR1 and a high concentration of inhibitor” value is “resulted in recovery of enzymatic activity”. Further, the “effect of DTNB substrate increase on dose response curve” value in [8] is given as “right-shift of the dose response curve”. The “TRXR1 inhibition in cells” value in [9] (H209 versus A549, TRXR1 inhibition after 100min) is recorded as “more potent inhibition of TRXR1 in the SCLC line H209 as compared to the NSCLC line A549”. Moreover, in data set [9] (SCLC line H69), the “dose response curves upon induced overexpression of TRX1” value is “rightshift of the dose response curves of cytotoxicity and TRXR1 inhibition”.
Take `CC[P+](CC)(CC)[Au-][S][C@@H]1O[C@H](COC(C)=O)[C@@H](OC(C)=O)[C@H](OC(C)=O)[C@H]1OC(C)=O` [auranofin, reference compound]: in [1], the “reversibility of probe oxidation” value is on record as “remains stable”; the “oxidation of the mitochondrial roGFP2-Orp1 probe” value was “produces the same fast and pronounced increase in probe oxidation as in the cytoplasm”. The increase of peroxides entry in data set [2] was “induced fast and strong increase of peroxides”. For the same molecule, the “inhibition of TRXR1ΔSec” value in data set [3] is listed as “able to repress the activity of the truncated enzyme, although to a lesser extent”. For the same molecule, the “effect of increasing amounts of TRX1 on enzyme inhibition” value in data set [4] was “an effect not observed”. The “enzymatic activity after dilution of a sample containing TRXR1 and a high concentration of inhibitor” value in [7] is “this was not the case”. For the same molecule, the “effect of DTNB substrate increase on dose response curve” value in data set [8] is “showed no affect with increasing DTNB concentrations”.
